Measured values as given in paper PMC8815882, “Screening the pandemic response box identified benzimidazole carbamates, Olorofim and ravuconazole as promising drug candidates for the treatment of eumycetoma” (PLoS Neglected Tropical Diseases, 2022).
Read-outs that look alike come from different tables or passages of the source.

Columns and labels:
M. mycetomatis MM55 = assay: IC50 determination, 2-fold dilution series 16 to 0.03125 μM; format: cell-based, Madurella mycetomatis; conditions: for IC50 / IC90: Madurella mycetomatis
[1] = tested on: M. mycetomatis genome strain MM55; assay: CLSI M38-A2 based in vitro susceptibility screening (XTT or resazurin), growth at fixed concentration; format: cell-based, Madurella mycetomatis; conditions: Madurella mycetomatis; for Percent fungal survival at 100 µM: read-out: Percentage survival at 100um, 100 uM A (second replicate column)
[2] = MM55, mean of replicates, read-out: IC50 mean
[3] = MM55, mean of replicates, read-out: IC90 mean
[4] = MM55, replicate 1, read-out: IC50 1 um
[5] = MM55, replicate 1, read-out: IC90 1 um
[6] = MM55, replicate 2, read-out: IC50 2 um
[7] = MM55, replicate 2, read-out: IC90 2 um
[8] = MM55, replicate 3, read-out: IC50 3 um
[9] = MM55, replicate 3, read-out: IC90 3 um
[10] = mean of three, M. mycetomatis MM55, read-out: Percentage survival at 25um, 25 uM mean
[11] = replicate A, M. mycetomatis MM55, read-out: Percentage survival at 25um, 25 um A
[12] = replicate B, M. mycetomatis MM55, read-out: Percentage survival at 25um, 25 uM B
[13] = replicate C, M. mycetomatis MM55, read-out: Percentage survival at 25um, 25 uM C
[14] = mean of three, M. mycetomatis MM55, read-out: Percentage survival at 100um, 100 uM mean
[15] = replicate 1, M. mycetomatis MM55, read-out: Percentage survival at 100um, 100 uM A (first replicate column)
[16] = replicate 2, M. mycetomatis MM55
[17] = replicate 3, M. mycetomatis MM55, read-out: Percentage survival at 100um, 100 uM A (third replicate column)
[18] = MM55, replicate 1, read-out: IC50 1
[19] = MM55, replicate 1, read-out: IC90 1
[20] = MM55, replicate 2, read-out: IC50 2
[21] = MM55, replicate 2, read-out: IC90 2
[22] = MM55, replicate 3, read-out: IC50 3
[23] = MM55, replicate 3, read-out: IC90 3
[24] = mean, read-out: Percentage survival at 25um, 25 uM mean
[25] = replicate A, read-out: Percentage survival at 25um, 25 um A
[26] = replicate B, read-out: Percentage survival at 25um, 25 uM B
[27] = replicate C, read-out: Percentage survival at 25um, 25 uM C
[28] = mean, read-out: Percentage survival at 100um, 100 uM mean
[29] = replicate (first column), read-out: Percentage survival at 100um, 100 uM A
[30] = replicate (second column), read-out: Percentage survival at 100um, 100 uM A
[31] = replicate (third column), read-out: Percentage survival at 100um, 100 uM A
[32] = MM55, mean of three replicates, read-out: IC50 mean
[33] = MM55, mean of three replicates, read-out: IC90 mean
[34] = mean of three replicates, read-out: Percentage survival at 25um, 25 uM mean
[35] = mean of three replicates, read-out: Percentage survival at 100um, 100 uM mean
[36] = replicate 1, read-out: Percentage survival at 100um, 100 uM A (first replicate column)
[37] = replicate 3, read-out: Percentage survival at 100um, 100 uM A (third replicate column)

IC50 (M. mycetomatis MM55; [4]) [µM]	IC90 (M. mycetomatis MM55; [5]) [µM]	IC50 (M. mycetomatis MM55; [6]) [µM]	IC90 (M. mycetomatis MM55; [7]) [µM]	IC50 (M. mycetomatis MM55; [8]) [µM]	IC90 (M. mycetomatis MM55; [9]) [µM]	IC50 (M. mycetomatis MM55; [32]) [µM]	IC90 (M. mycetomatis MM55; [33]) [µM]	Structure (SMILES)	Drug static or cidal (M. mycetomatis MM55)	activity at 25 µM [1, 25] [%]	activity at 25 µM [1, 26] [%]	activity at 25 µM [1, 27] [%]	activity at 25 µM [1, 34] [%]	activity at 100 µM [1, 35] [%]	activity at 100 µM [1, 36] [%]	Percent fungal survival at 100 µM ([1]; replicate 2) [%]	activity at 100 µM [1, 37] [%]	other results
16.5	24.2	15.9	24.9	16.6	24.4	16.3	24.5	Oc1c(C(Nc2ccccn2)c2ccccc2)ccc2cccnc12 (stereo not shown) [MMV565773]	Cidal	9.67	6.46	30.1	15.4	11.7	9.08	8.24	17.8	–
6.8	23.7	12.5	22.2	12.1	22.2	–	–	O=S(=O)(Nc1cccc2cccnc12)c1ccccc1 [MMV1578890]	–	–	–	–	–	–	–	–	–	Drug static or cidal (M. mycetomatis MM55; M. mycetomatis): Static; IC50 (M. mycetomatis MM55; [2]): 10.5 µM; IC90 (M. mycetomatis MM55; [3]): 22.7 µM; activity at 25 µM [1, 10]: 2.42%; activity at 25 µM [1, 11]: 2.33%; activity at 25 µM [1, 12]: 0.789%; activity at 25 µM [1, 13]: 4.13%; activity at 100 µM [1, 14]: 29.9%; activity at 100 µM [1, 15]: 1.58%; Percent fungal survival at 100 µM [1, 16]: 81.7%; activity at 100 µM [1, 17]: 6.47%
> 25	> 25	> 25	> 25	> 25	> 25	> 25	> 25	FC(F)(F)Oc1ccc(Nc2ccc3cccc(Cl)c3n2)cc1 [MMV1581032]	Static	-12.4	8.52	2.93	-0.326	0.711	-4.67	1	5.8	–

The remaining lines, values behind:

Structure (SMILES)	IC50 (M. mycetomatis MM55; [4]) [µM]	IC90 (M. mycetomatis MM55; [5]) [µM]	IC50 (M. mycetomatis MM55; [6]) [µM]	IC90 (M. mycetomatis MM55; [7]) [µM]	IC50 (M. mycetomatis MM55; [8]) [µM]	IC90 (M. mycetomatis MM55; [9]) [µM]	IC50 (M. mycetomatis MM55; [32]) [µM]	IC90 (M. mycetomatis MM55; [33]) [µM]	Drug static or cidal (M. mycetomatis MM55)	activity at 25 µM [1, 25] [%]	activity at 25 µM [1, 26] [%]	activity at 25 µM [1, 27] [%]	activity at 25 µM [1, 34] [%]	activity at 100 µM [1, 35] [%]	activity at 100 µM [1, 36] [%]	Percent fungal survival at 100 µM ([1]; replicate 2) [%]	activity at 100 µM [1, 37] [%]	other results
O=[N+]([O-])c1ccc2c(CCc3c[nH]c4ccccc34)c[nH]c2c1 [MMV1593539]	3.2	18	15.9	23.4	18	23.7	–	–	–	–	–	–	–	–	–	–	–	Drug static or cidal (M. mycetomatis MM55; M. mycetomatis): Cidal; IC50 (M. mycetomatis MM55; [2]): 12.4 µM; IC90 (M. mycetomatis MM55; [3]): 21.7 µM; activity at 25 µM [1, 10]: 4.51%; activity at 25 µM [1, 11]: 2.73%; activity at 25 µM [1, 12]: 8.11%; activity at 25 µM [1, 13]: 2.7%; activity at 100 µM [1, 14]: 47.9%; activity at 100 µM [1, 15]: 0.0782%; Percent fungal survival at 100 µM [1, 16]: 136%; activity at 100 µM [1, 17]: 7.7%
Cc1ccc(Oc2ccccc2-c2csc(NC3=NCCCN3)n2)c(C)c1 [MMV1634493]	–	–	–	–	–	–	–	–	Static	34.1	1.37	4.64	–	–	–	–	–	IC50 (M. mycetomatis MM55; MM55, mean, read-out: IC50 mean): > 25 µM; IC90 (M. mycetomatis MM55; MM55, read-out: IC90 mean): > 25 µM; IC50 (M. mycetomatis MM55; [18]): > 25 µM; IC90 (M. mycetomatis MM55; [19]): > 25 µM; IC50 (M. mycetomatis MM55; [20]): > 25 µM; IC90 (M. mycetomatis MM55; [21]): > 25 µM; IC50 (M. mycetomatis MM55; [22]): > 25 µM; IC90 (M. mycetomatis MM55; [23]): > 25 µM; activity at 25 µM [1, 24]: 13.4%; activity at 100 µM [1, 28]: 5.01%; activity at 100 µM [1, 29]: 1.69%; activity at 100 µM [1, 30]: 6.56%; activity at 100 µM [1, 31]: 6.77%
Cc1nc2ccc(Oc3ccccc3)cc2c2c1CCN2CCc1ccccc1 [MMV1634399]	14.2	22.3	9.8	22.7	11.2	21	11.8	22	Cidal	-3.19	-1.6	16.4	3.88	0.985	1.91	-0.867	1.92	–
O=[N+]([O-])/C(Br)=C/c1ccc(Br)o1 [MMV1645051]	–	–	–	–	–	–	–	–	Static	2.2	-0.118	2.96	–	–	–	–	–	IC90 (M. mycetomatis MM55; MM55, read-out: IC90 mean): > 25 µM; IC50 (M. mycetomatis MM55; [18]): > 25 µM; IC90 (M. mycetomatis MM55; [19]): > 25 µM; IC50 (M. mycetomatis MM55; [20]): 23 µM; IC90 (M. mycetomatis MM55; [21]): > 25 µM; IC50 (M. mycetomatis MM55; [22]): > 25 µM; IC90 (M. mycetomatis MM55; [23]): > 25 µM; activity at 25 µM [1, 24]: 1.68%; activity at 100 µM [1, 28]: 7.68%; activity at 100 µM [1, 29]: -0.809%; activity at 100 µM [1, 30]: 7.74%; activity at 100 µM [1, 31]: 16.1%
N=C(N)NCCCCC(=O)Nc1cc(C(F)(F)F)cc(NC(=O)c2cc(C(=O)Nc3cc(C(F)(F)F)cc(NC(=O)CCCCNC(=N)N)c3O[C@@H]3CCNC3)ncn2)c1O[C@@H]1CCNC1 [MMV1634402]	6.6	20	16.1	23.9	13.8	22.8	12.2	22.2	Cidal	3.69	8.57	29.8	14	18.1	14.1	19.7	20.5	–
N#Cc1c(F)c(Cl)c(NCc2ccccc2)c(C#N)c1F [MMV1582496]	13.2	23.1	15.8	23.6	16.5	24.2	15.2	23.6	Static	2	-0.68	13.6	4.98	2.09	-0.676	1.24	5.72	–
CC(C)=CCC/C(C)=C/CNCCNC1C2CC3CC(C2)CC1C3 (stereo not shown) [MMV687273]	23.9	> 25	14.6	22.9	> 25	> 25	–	–	–	–	–	–	–	–	–	–	–	Drug static or cidal (M. mycetomatis MM55; M. mycetomatis): Cidal; activity at 25 µM [1, 10]: 1.12%; activity at 25 µM [1, 11]: -2.04%; activity at 25 µM [1, 12]: 4.77%; activity at 25 µM [1, 13]: 0.619%; activity at 100 µM [1, 14]: 6.61%; activity at 100 µM [1, 15]: 4.04%; Percent fungal survival at 100 µM [1, 16]: 15.3%; activity at 100 µM [1, 17]: 0.477%
Cc1cc(O)c2c(c1)C(=O)c1c(I)c(O)c(I)c(O)c1C2=O [MMV1581545]	> 25	> 25	> 25	> 25	> 25	> 25	> 25	> 25	Cidal	10.6	4.74	21.8	12.4	12.4	10.8	14.2	12.3	–
N=c1n(CCN2CCCCC2)c2ccccc2n1CC(O)COc1ccc(Cl)cc1Cl (stereo not shown) [MMV394033]	18.7	> 25	16.3	23.5	16.4	23.7	17.1	–	Cidal	-10.3	-2.83	-0.144	-4.41	-2.82	-5.36	-3.08	-0.0169	–
CC(C)Oc1ccc(-c2nc(-c3cccc4c3CC[C@@H]4NCCO)no2)cc1C#N [MMV1580492]	> 25	> 25	> 25	> 25	> 25	> 25	> 25	> 25	Cidal	-14.6	-6.47	0.368	-6.9	2.78	-1.25	-2.44	12	–
